Active and inactive are the calls of the source. The calls are words filed in the database; no cut-off is given here.

Assay [1] relates to Mus musculus. Description: Compound was evaluated for analgesic activity using mouse hotplate test, at the dose 20 mg/kg; Inactive. Type of assay: functional, organism-based. Also noted: dose 20 mg/kg.
The species named for assay [2] is Mus musculus. Description: Compound was evaluated for analgesic activity using mouse hotplate test. Type of assay: functional.
Assay [3] relates to Mus musculus. Briefly: Compound was evaluated for analgesic activity using mouse hotplate test, at the dose 50 mg/kg; Inactive. In kind it is functional, organism-based. Also noted: dose 50 mg/kg.
The subject of assay [4] is Mus musculus. Description: Compound was evaluated for analgesic activity using mouse hotplate test at 7.1-13.8 mg/kg dose. Type of assay: functional.

`CC(C)(C)C12CCN(CC3CC3)C(Cc3ccccc31)C2` (stereo not given): the ED50 entry in the assay with Mus musculus [1] is “inactive”.

In the assay filed under Mus musculus [2], `CN1CCC2(C(C)(C)C)CC1Cc1ccccc12` (stereo not given) had an ED50 of 14.1 mg/kg.

On to `C=CCN1CCC2(C(C)(C)C)CC1Cc1ccccc12` (stereo not given), for which the ED50 result with Mus musculus [3] was “inactive”.

Molecule `CC(C)(C)C12CCN(CCc3ccccc3)C(Cc3ccccc31)C2` (stereo not given) registered a 50% effective dose (ED50) with Mus musculus [4] of 9.9 mg/kg.

Regarding `CN1CC[C@]23c4c5ccc(O)c4O[C@H]2[C@@H](O)C=C[C@H]3[C@H]1C5.CN1CC[C@]23c4c5ccc(O)c4O[C@H]2[C@@H](O)C=C[C@H]3[C@H]1C5.O=S(=O)(O)O`, the median effective dose (ED50) in the assay listed under Mus musculus [2] was 1.2 mg/kg.

For the origin of these results see ChEMBL document CHEMBL1123444, “Analgesic actions of 3-substituted 6-tert-butyl-1,2,3,4,5,6-hexahydro-2,6-methano-3-benzazocines” (1986).
